Data on 3 compounds can be found in US8481525B2, “Kinase inhibitors and method of treating cancer with same” (University of Health Network, priority 2009, dated 2013).

Each structure is given as a SMILES string. Read-outs that look alike come from different tables or passages of the source.

One assay deals with KDR (VEGFR2) (Homo sapiens, UniProt P35968). Nature of the assay: CEREP HTRF kinase selectivity assay. In kind it is biochemical. (Time-resolved FRET reads energy transfer from a long-lived donor to a nearby acceptor.)
KDR (VEGFR2), sequence (P35968 20-1356): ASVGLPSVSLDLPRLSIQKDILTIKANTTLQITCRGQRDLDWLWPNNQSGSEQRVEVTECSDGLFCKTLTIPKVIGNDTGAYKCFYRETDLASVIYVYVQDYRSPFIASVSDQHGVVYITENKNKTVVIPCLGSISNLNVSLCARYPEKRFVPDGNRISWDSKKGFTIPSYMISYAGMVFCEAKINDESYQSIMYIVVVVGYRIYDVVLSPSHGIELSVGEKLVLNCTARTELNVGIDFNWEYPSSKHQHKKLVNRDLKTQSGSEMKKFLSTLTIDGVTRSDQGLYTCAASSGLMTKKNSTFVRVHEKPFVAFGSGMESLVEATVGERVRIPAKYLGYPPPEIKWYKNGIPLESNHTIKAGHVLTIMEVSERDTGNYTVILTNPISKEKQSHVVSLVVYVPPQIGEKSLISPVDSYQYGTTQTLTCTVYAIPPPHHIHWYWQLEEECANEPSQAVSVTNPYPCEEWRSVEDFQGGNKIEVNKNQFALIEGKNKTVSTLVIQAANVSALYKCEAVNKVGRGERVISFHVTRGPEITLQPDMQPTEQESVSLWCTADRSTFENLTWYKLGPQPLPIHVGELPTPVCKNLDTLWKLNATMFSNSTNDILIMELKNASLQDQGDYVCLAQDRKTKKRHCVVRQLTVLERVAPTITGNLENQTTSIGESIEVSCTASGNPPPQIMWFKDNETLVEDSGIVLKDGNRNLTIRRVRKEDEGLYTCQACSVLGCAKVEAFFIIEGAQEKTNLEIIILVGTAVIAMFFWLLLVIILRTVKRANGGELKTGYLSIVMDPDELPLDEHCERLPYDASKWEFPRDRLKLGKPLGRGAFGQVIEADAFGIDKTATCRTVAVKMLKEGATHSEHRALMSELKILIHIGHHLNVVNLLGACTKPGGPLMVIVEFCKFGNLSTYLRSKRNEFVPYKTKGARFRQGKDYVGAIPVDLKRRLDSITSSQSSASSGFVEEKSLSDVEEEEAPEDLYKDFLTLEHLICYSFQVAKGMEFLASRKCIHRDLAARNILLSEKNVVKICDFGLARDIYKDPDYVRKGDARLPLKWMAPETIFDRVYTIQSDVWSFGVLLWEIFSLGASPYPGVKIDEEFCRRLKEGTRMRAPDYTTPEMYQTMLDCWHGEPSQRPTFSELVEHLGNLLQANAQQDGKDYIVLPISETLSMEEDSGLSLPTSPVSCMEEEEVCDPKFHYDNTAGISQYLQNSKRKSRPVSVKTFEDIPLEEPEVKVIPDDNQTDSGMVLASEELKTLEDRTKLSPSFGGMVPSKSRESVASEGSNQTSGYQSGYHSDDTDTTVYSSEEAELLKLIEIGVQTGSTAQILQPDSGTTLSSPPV
Assay [1] concerns SW620 colon cancer cell line. The assay is described as follows: Cell growth inhibition, Sulforhodamine B assay (SRB). It counts as cell-based. Particulars: Homo sapiens, SW-620, 120 h, 5 days culture, SRB. The method in brief:
(§1)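 Absorbance at 570 nm of protein-bound sulforhodamine B served as a measure of cell mass after 5 days of culture with compound. GI50 was derived from inhibition relative to DMSO-treated cells.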
A general note: Sulforhodamine B stains cellular protein and so reports cell mass.

Assay [2] has as its system HCC1954 basal breast cancer cell line. The description is as above. In kind it is cell-based. Particulars: Homo sapiens, HCC1954, 120 h, read-out: Cell Line GI50 Range HCC-1954. The method in brief: as §1
The subject of another assay is AMPKalpha. The assay is described as follows: CEREP HTRF kinase selectivity assay. In kind it is biochemical, human. The procedure: The inhibitory activity of selected compounds of the invention was evaluated against a panel of 45 different kinase enzymes by CEREP, France. The assays were performed using standard HTRF assay methods as documented by CEREP against the human orthologues of Ab1 kinase, Akt1/PKBa, AMPKa, BMX kinase (Etk), Brk, CaMK2a, CaMK4, CDC2/CDK1 (cycB), CHK1, CHK2, c-Met kinase, CSK, EphB4 kinase, ERKI, ERK2 (P42mapk), FGFR2 kinase, FGFR4 kinase, FLT-1 kinase (VEGFR1), FLT-3 kinase, Fyn kinase, 1GF1R kinase, IRK (InsR), JNK 2, KDR kinase (VEGFR2), Lck kinase, Lyn kinase, MAPKAPK2, MEK1/MAP2K1, p38a kinase, p38d kinase, p38 g kinase, PDGFRb kinase, PDKI, PKA, PKCa, PKCb1, PKCb2, PKCg, Ret kinase, ROCK2, RSK2, Src kinase, Syk, and TRKA (Table 3). The % Inhibition was determined by the formula; % Inhibition=100×(1−(experimental value−background value)/(high activity control−background value)).

For the next assay, the target named is FLT-3 (Homo sapiens, UniProt P36888). Nature of the assay: CEREP HTRF kinase selectivity assay. In kind it is biochemical. Particulars: FLT-3, 10 uM.
FLT-3, sequence (P36888 27-993): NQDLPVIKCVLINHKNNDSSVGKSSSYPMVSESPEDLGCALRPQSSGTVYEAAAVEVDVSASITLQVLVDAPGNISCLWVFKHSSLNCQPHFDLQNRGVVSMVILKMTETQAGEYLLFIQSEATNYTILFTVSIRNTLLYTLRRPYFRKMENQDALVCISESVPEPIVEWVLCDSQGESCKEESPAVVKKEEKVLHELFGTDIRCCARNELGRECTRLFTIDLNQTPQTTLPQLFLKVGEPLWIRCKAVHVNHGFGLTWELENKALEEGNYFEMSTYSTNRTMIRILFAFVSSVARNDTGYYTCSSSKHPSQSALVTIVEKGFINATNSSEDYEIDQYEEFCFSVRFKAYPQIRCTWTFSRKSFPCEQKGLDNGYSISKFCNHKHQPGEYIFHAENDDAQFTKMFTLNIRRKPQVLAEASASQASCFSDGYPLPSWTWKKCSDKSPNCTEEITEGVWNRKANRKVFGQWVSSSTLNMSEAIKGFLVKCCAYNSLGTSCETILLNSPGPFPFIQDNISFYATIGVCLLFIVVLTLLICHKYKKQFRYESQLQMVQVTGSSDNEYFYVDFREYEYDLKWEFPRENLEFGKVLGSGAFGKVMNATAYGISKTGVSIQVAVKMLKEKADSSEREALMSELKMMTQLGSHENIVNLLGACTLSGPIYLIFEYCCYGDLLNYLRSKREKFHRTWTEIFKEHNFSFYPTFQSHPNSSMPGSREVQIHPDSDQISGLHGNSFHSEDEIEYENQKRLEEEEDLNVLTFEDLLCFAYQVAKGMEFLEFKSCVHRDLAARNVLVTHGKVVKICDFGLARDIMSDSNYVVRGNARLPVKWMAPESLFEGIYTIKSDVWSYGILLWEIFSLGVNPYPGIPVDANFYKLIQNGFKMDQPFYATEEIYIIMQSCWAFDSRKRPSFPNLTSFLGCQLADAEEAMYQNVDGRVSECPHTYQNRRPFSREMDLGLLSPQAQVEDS
For assay [3], the system named is human mammary epithelial primary cells (HMEC). The assay is described as follows: Cell growth inhibition, Sulforhodamine B assay (SRB). Particulars: 120 h, read-out: Cell Line GI50 Range HMEC.
The test system of assay [4] is A549 lung cancer cell line. The description is as above. It counts as cell-based. The settings on record: Homo sapiens, 120 h; A549 lung cancer cell line; 5 days culture; SRB; read-out: Cell Line GI50 Range A-549. The method in brief: as §1
Assay [5] concerns MDA-MB-468 basal breast cancer cell line. The assay is described as above. Particulars: Homo sapiens, 120 h; MDA-MB-468 basal breast cancer cell line; 5 days culture; SRB; read-out: Cell Line GI50 Range MDA-MB-468. It counts as cell-based. The procedure, abridged: as §1
In assay [6] the test system is MCF-7 luminal breast cancer cell line. The assay is described as above. Particulars: Homo sapiens, MCF7, 120 h; MCF-7 luminal breast cancer cell line; 5 days culture; SRB; read-out: Cell Line GI50 Range MCF-7. In kind it is cell-based. The method in brief: as §1
In a further assay the test system is HUV-EC-C cells. The assay is described as follows: In Vitro Angiogenesis Assay (tube formation). Particulars: HUV-EC-C cells on ECMatrix, 4 hr; FIGS. 1 and 2.

Description for FLT-3: (§2) The inhibitory activity of selected compounds of the invention was evaluated against a panel of 45 different kinase enzymes by CEREP, France. […] The % Inhibition was determined by the formula; % Inhibition=100×(1−(experimental value−background value)/(high activity control−background value)).
Description for KDR (VEGFR2): as §2

Take `CN(C)Cc1ccc(/C=C/c2n[nH]c3cc([C@@H]4C[C@]45C(=O)Nc4ccccc45)ccc23)cc1` (racemic) [Example A26, (1R*,2R*)-(E)-2-(3-(4-((dimethylamino)methyl)styryl)-1H-indazol-6-yl)spiro[cyclopropane-1,3′-indolin]-2′-one 2,2,2-trifluoroacetate]: the inhibition at 10 µM against KDR (VEGFR2) was determined as 58%; against FLT-3 it was 102%. The GI50 is 100 to 1000 nM in [1] (read-out: Cell Line GI50 Range SW-620, SW620 colon cancer cell line) and 1000 to 10000 nM in assay [2]. The “% Inhibition @ 10 uM” value with AMPKalpha is reported as 69%.
In the case of `COc1ccc2c(c1)[C@@]1(C[C@@H]1c1ccc3c(/C=C/c4ccc(N5CCN(C(C)C)CC5)cc4)n[nH]c3c1)C(=O)N2` (racemic) [Example A189, (1R*,2S*)-(E)-2-(3-(4-(4-isopropylpiperazin-1-yl)styryl)-1H-indazol-6-yl)-5′-methoxyspiro[cyclopropane-1,3′-indolin]-2′-one 2,2,2-trifluoroacetate], the GI50 is 1000 to 10000 nM in assay [3]; less than 100 nM in assay [4]; less than 100 nM in assay [1] (SW620 colon cancer cell line, read-out: Cell Line GI50 Range SW-620); less than 100 nM in [2] (HCC1954 basal breast cancer cell line, 5 days culture, SRB); less than 100 nM in [5]; less than 100 nM in assay [6].
Regarding `COc1ccc2c(c1)[C@]1(C[C@H]1c1ccc3c(-c4ccc(N5CCN(C)CC5)nc4)n[nH]c3c1)C(=O)N2` (relative stereo) [Example A13, (1R*,2S*)-5′-Methoxy-2-(3-(6-(4-methylpiperazin-1-yl)pyridin-3-yl)-1H-indazol-6-yl)spiro[cycloropane-1,3′-indolin]-2′-one], the “anti-angiogenic effect (tube formation, % of control tube count)” value in the assay with HUV-EC-C cells is “anti-agiogenic effects at submicromolar concentrations”. Also, in the assay on AMPKalpha, the “% Inhibition @ 10 uM” value is given as 8%.

By inhibition is commonly meant the drop in the measured response relative to a control, in per cent. For orientation: GI50 means the concentration that inhibits growth by half.
